# Read-outs that look alike come from different tables or passages of the source.
# Key:
# [1] = system: Key Broadleaf Weed and Crop Species; assay: Post-emergent Test II herbicidal activity (Table 15); type: in vivo; conditions: post-emergence, 336 h, 14 d; for pest or weed control at 35 g/ha: 35 g ai/ha; for pest or weed control at 70 g/ha: 70 g ai/ha; for pest or weed control at 140 g/ha: 140 g ai/ha
# How it was run: (§1)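 Visual injury rating (0 = none, 100% = complete kill) made 14 d after treatment, relative to untreated plants. Compounds in an acetone/DMSO/aqueous crop-oil/surfactant spray, at top rate and serial 1/2×-1/16× rates, were applied at 187 L/ha overhead to first-second true leaf plants raised 7-21 d in greenhouse.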
# [2] = system: Key Grass and Sedge Weeds as well as Grass Crops; assay: Post-emergent Test II herbicidal activity (Table 16); type: in vivo; conditions: post-emergence, 336 h, 14 days after application; for pest or weed control at 35 g/ha: 35 g ai/ha; for pest or weed control at 70 g/ha: 70 g ai/ha; for pest or weed control at 140 g/ha: 140 g ai/ha
# How it was run: as §1
# [3] = Abutilon theophrasti, velvetleaf (Abutilon theophrasti), read-out: Visual Growth Reduction (%) 14 Days After Application, ABUTH
# [4] = Amaranthus retroflexus, redroot pigweed (Amaranthus retroflexus), read-out: Visual Growth Reduction (%) 14 Days After Application, AMARE
# [5] = Brassica napus, oilseed rape, canola (Brassica napus), read-out: Visual Growth Reduction (%) 14 Days After Application, BRSNN
# [6] = Chenopodium album, lambsquarters (Chenopodium album), read-out: Visual Growth Reduction (%) 14 Days After Application, CHEAL
# [7] = Euphorbia heterophylla, wild poinsettia (Euphorbia heterophylla), read-out: Visual Growth Reduction (%) 14 Days After Application, EPHHL
# [8] = Helianthus annuus, sunflower (Helianthus annuus), read-out: Visual Growth Reduction (%) 14 Days After Application, HELAN
# [9] = Cyperus esculentus, yellow nutsedge (Cyperus esculentus), read-out: Visual Growth Reduction (%) 14 Days After Application CYPES
# [10] = Echinochloa crus-galli, barnyardgrass (Echinochloa crus-galli), read-out: Visual Growth Reduction (%) 14 Days After Application ECHCG
# [11] = Oryza sativa, rice (Oryza sativa), read-out: Visual Growth Reduction (%) 14 Days After Application ORYSA
# [12] = Setaria faberi, giant foxtail (Setaria faberi), read-out: Visual Growth Reduction (%) 14 Days After Application SETFA
# [13] = Triticum aestivum, wheat, spring (Triticum aestivum), read-out: Visual Growth Reduction (%) 14 Days After Application TRZAS
# [14] = Zea mays, maize, corn (Zea mays), read-out: Visual Growth Reduction (%) 14 Days After Application ZEAMX
smiles,measurement,setting,value
COC(=O)c1nc(-c2cccc3ccsc23)c(F)c(N)c1Cl [Compound 3.24],pest or weed control at 35 g/ha,[1]; [3],0 to 29%
same,pest or weed control at 70 g/ha,[1]; [3],0 to 29%
same,pest or weed control at 140 g/ha,[1]; [3],0 to 29%
same,pest or weed control at 35 g/ha,[1]; [4],85 to 94%
same,pest or weed control at 70 g/ha,[1]; [4],85 to 94%
same,pest or weed control at 140 g/ha,[1]; [4],95 to 100%
same,pest or weed control at 35 g/ha,[1]; [5],45 to 59%
same,pest or weed control at 70 g/ha,[1]; [5],45 to 59%
same,pest or weed control at 140 g/ha,[1]; [5],45 to 59%
same,pest or weed control at 35 g/ha,[1]; [6],85 to 94%
same,pest or weed control at 70 g/ha,[1]; [6],95 to 100%
same,pest or weed control at 140 g/ha,[1]; [6],95 to 100%
same,pest or weed control at 35 g/ha,[1]; [7],0 to 29%
same,pest or weed control at 70 g/ha,[1]; [7],0 to 29%
same,pest or weed control at 140 g/ha,[1]; [7],0 to 29%
same,pest or weed control at 35 g/ha,[1]; [8],60 to 74%
same,pest or weed control at 70 g/ha,[1]; [8],60 to 74%
same,pest or weed control at 140 g/ha,[1]; [8],85 to 94%
same,pest or weed control at 35 g/ha,[2]; [9],0 to 29%
same,pest or weed control at 70 g/ha,[2]; [9],0 to 29%
same,pest or weed control at 140 g/ha,[2]; [9],0 to 29%
same,pest or weed control at 35 g/ha,[2]; [10],0 to 29%
same,pest or weed control at 70 g/ha,[2]; [10],0 to 29%
same,pest or weed control at 140 g/ha,[2]; [10],0 to 29%
same,pest or weed control at 35 g/ha,[2]; [11],0 to 29%
same,pest or weed control at 70 g/ha,[2]; [11],0 to 29%
same,pest or weed control at 140 g/ha,[2]; [11],0 to 29%
same,pest or weed control at 35 g/ha,[2]; [12],0 to 29%
same,pest or weed control at 70 g/ha,[2]; [12],0 to 29%
same,pest or weed control at 140 g/ha,[2]; [12],0 to 29%
same,pest or weed control at 35 g/ha,[2]; [13],0 to 29%
same,pest or weed control at 70 g/ha,[2]; [13],0 to 29%
same,pest or weed control at 140 g/ha,[2]; [13],0 to 29%
same,pest or weed control at 35 g/ha,[2]; [14],0 to 29%
same,pest or weed control at 70 g/ha,[2]; [14],0 to 29%
same,pest or weed control at 140 g/ha,[2]; [14],0 to 29%
same,melting point,,121 to 123 °C
